Assay results taken from patent publication US5945429A, “Compounds useful for inhibition of farnesyl protein transferase” (Schering Corporation, priority 1997, dated 1999).
“And” between values parts separate entries of the source, which are not always exact repeats. Identical values can stand only once.

Assays:
[1] = molecular target: T1, farnesyl protein transferase (Homo sapiens, UniProt P49354+P49356); experiment: FPT inhibition, in vitro enzyme assay (K-ras); format: biochemical
Description: (§1) FPT IC50 (inhibition of farnesyl protein transferase, in vitro enzyme assay) and COS Cell IC50 (Cell-Based Assay) were determined following the assay procedures described in WO 95/10516, published Apr. 20, 1995. GGPT IC50 (inhibition of geranylgeranyl protein transferase, in vitro enzyme assay), Cell Mat Assay, and anti-tumor activity (in vivo anti-tumor studies) could be determined by the assay procedures described in WO 95/10516. The disclosure of WO 95/10516 is incorporated herein by reference thereto.

[2] = molecular target: T1, farnesyl protein transferase; experiment: FPT inhibition, in vitro enzyme assay (H-ras); format: biochemical
Description: as §1

COS Cell = COS Cell IC50 (Cell-Based Assay); settings: COS cells
Description: as §1

Human tumor cells = experiment: Soft Agar Assay (anchorage-independent growth of human tumor cells); format: cell-based; settings: 10-16 days at 37° C., 5% CO2, MTT stain
Description: Soft Agar Assay: Anchorage-independent growth is a characteristic of tumorigenic cell lines. Human tumor cells are suspended in growth medium containing 0.3% agarose and an indicated concentration of a farnesyl transferase inhibitor. The solution is overlayed onto growth medium solidified with 0.6% agarose containing the same concentration of farnesyl transferase inhibitor as the top layer. After the top layer is solidified, plates are incubated for 10-16 days at 37° C. under 5% CO2 to allow colony outgrowth. […] Colonies can be counted and the IC50 's can be determined.

T1 sequence (P49356 whole entry, one chain of several): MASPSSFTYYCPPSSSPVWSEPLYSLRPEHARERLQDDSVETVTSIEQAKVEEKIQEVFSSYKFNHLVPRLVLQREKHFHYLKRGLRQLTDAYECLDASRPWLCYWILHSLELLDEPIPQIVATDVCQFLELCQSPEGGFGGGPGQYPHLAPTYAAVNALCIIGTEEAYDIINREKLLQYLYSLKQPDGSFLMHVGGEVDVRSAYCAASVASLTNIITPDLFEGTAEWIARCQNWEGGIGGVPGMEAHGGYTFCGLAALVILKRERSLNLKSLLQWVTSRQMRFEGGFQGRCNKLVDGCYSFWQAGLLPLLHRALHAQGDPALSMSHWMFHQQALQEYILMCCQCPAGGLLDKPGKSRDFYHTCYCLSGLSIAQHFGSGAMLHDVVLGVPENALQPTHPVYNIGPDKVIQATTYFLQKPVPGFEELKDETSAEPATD

IC50 [1] [µM]	IC50 [2]	Structure (SMILES)	IC50 (COS Cell) [µM]	IC50 (Human tumor cells) [µM]
0.0229	0.0058 µM	CC(C)S(=O)(=O)N1CCC(CC(=O)N2CCC([C@H]3c4ncc(Br)cc4CCc4cc(Cl)cc(Br)c43)CC2)CC1 [Example 8]	–	–
–	–	O=C(CC1CCN(S(=O)(=O)c2cccs2)CC1)N1CCC([C@H]2c3ncc(Br)cc3CCc3cc(Cl)cc(Br)c32)CC1 [Example 13]	0.05	> 0.25
0.0142	0.005 µM	CCCS(=O)(=O)N1CCC(CC(=O)N2CCC([C@H]3c4ncc(Br)cc4CCc4cc(Cl)cc(Br)c43)CC2)CC1 [Example 7]	–	–
–	–	Cn1cnc(S(=O)(=O)N2CCC(CC(=O)N3CCC([C@H]4c5ncc(Br)cc5CCc5cc(Cl)cc(Br)c54)CC3)CC2)c1 [Example 14]	0.4	–
–	0.0175 µM and 0.008 µM	O=C(CC1CCN(S(=O)(=O)Cc2ccccc2)CC1)N1CCC([C@H]2c3ncc(Br)cc3CCc3cc(Cl)cc(Br)c32)CC1 [Example 9]	–	–
0.0525	0.0341 µM	CC1(C)[C@@H]2CC[C@@]1(CS(=O)(=O)N1CCC(CC(=O)N3CCC([C@H]4c5ncc(Br)cc5CCc5cc(Cl)cc(Br)c54)CC3)CC1)C(=O)C2 [Example 10]	–	–

Structure (SMILES)	IC50 [1] [µM]	IC50 [2]	IC50 (COS Cell) [µM]	IC50 (Human tumor cells) [µM]
CCS(=O)(=O)N1CCC(CC(=O)N2CCC([C@H]3c4ncc(Br)cc4CCc4cc(Cl)cc(Br)c43)CC2)CC1 [Example 6]	0.0164	0.0037 µM	0.012	0.1
